Source: patent publication US7041169B2, “Methods of generating and screening for high free energy forms in capillaries” (S.S.C.I., Inc., priority 2000, dated 2006)
In brackets after ≈: the same amount, converted by molar mass. Entries after “also recorded” stand apart in the source; their conditions may differ.

Tests used:
Assay type in all cases: physicochemical
[1] = Solubility of ROY in ethanol; settings: 25 °C, organic solvent or mixture, 25 degrees C
Protocol: For this example, a solution of ROY in ethanol was prepared. A supersaturated solution of 160.3 mg of ROY in 2 mL of ethanol was prepared, having a supersaturation ratio of 6.7.

[2] = Solubility of ROY in water
[3] = Solidification of WAY from supersaturated ethanol solution in 95 capillary tubes (Example 5)
Protocol: A supersaturated solution of WAY in ethanol was prepared, having a supersaturation ratio of 2. The WAY solution was introduced into 95 capillary tubes. The tubes were left open at both ends and allowed to evaporate to the atmosphere. After about 25 minutes, sixty-two capillary tubes contained crystals. […] After about one hour, four additional capillary tubes contained white crystals, nine additional capillary tubes contained yellow crystals, and one additional capillary tube contained a mixture of white and yellow crystals.

[4] = Solidification of WAY from ethanol and aqueous ethanol in capillary tubes at different temperatures (Example 6, Table 1)
Protocol: For this example, solutions of the WAY compound were prepared at a supersaturation ratio of 2 in ethanol and in 10% aqueous ethanol. Each of these WAY solutions was introduced into twenty capillary tubes having a stated inner diameter of 0.5–0.6 mm and which had been washed by soaking in distilled water for about 10 minutes, rinsing with ethanol, and drying for at least an hour at 65 degrees C. The capillary tubes were maintained at room temperature and pressure (about 23 degrees C. and at about 45% relative humidity) and were observed periodically.
Solidification of the WAY compound from ethanol and aqueous ethanol solutions was also done at different temperatures (reported below in degrees Celsius). Table 1 summarizes the results of seven sets of twenty capillary tubes under set different sets of conditions.

SMILES	solubility [1]	solubility in water [2]	solid forms found in capillary tubes ([3]; after about 25 minutes, 95 tubes, sixty-two with crystals)	persistence of high free energy yellow crystals in capillary tubes ([3]; overnight (about thirteen hours and forty minutes), room temperature)	Result (solid forms in 20 capillary tubes) ([4]; Solvent Aqueous ethanol, Temp 38 degrees Celsius, Time 0:50, tubes with mixed yellow and white crystals)	Result (solid forms in 20 capillary tubes) ([4]; Solvent Aqueous ethanol, Temp 38 degrees Celsius, Time 0:50, tubes with no solids formed)	Result (solid forms in 20 capillary tubes) ([4]; Solvent Aqueous ethanol, Temp 38 degrees Celsius, Time 1:13, tubes with mixed yellow and white crystals)	Result (solid forms in 20 capillary tubes) ([4]; Solvent Aqueous ethanol, Temp 38 degrees Celsius, Time 1:13, tubes with no solids formed)	Result (solid forms in 20 capillary tubes) ([4]; Solvent Aqueous ethanol, Temp 38 degrees Celsius, Time 1:42, tubes with mixed yellow and white crystals)	Result (solid forms in 20 capillary tubes) ([4]; Solvent Aqueous ethanol, Temp 38 degrees Celsius, Time 1:42, tubes with no solids formed)	Result (solid forms in 20 capillary tubes) ([4]; Solvent Aqueous ethanol, Temp −2 degrees Celsius, Time 4:35, tubes with white crystals)	Result (solid forms in 20 capillary tubes) ([4]; Solvent Aqueous ethanol, Temp −2 degrees Celsius, Time 4:35, tubes with yellow crystals)	Result (solid forms in 20 capillary tubes) ([4]; Solvent Ethanol, Temp 38 degrees Celsius, Time 0:50, tubes with mixed white and yellow crystals)	Result (solid forms in 20 capillary tubes) ([4]; Solvent Ethanol, Temp 38 degrees Celsius, Time 0:50, tubes with no solids formed)	Result (solid forms in 20 capillary tubes) ([4]; Solvent Ethanol, Temp 38 degrees Celsius, Time 1:43, tubes with mixed yellow and white crystals)	Result (solid forms in 20 capillary tubes) ([4]; Solvent Ethanol, Temp 38 degrees Celsius, Time 1:43, tubes with no solids formed)	Result (solid forms in 20 capillary tubes) ([4]; Solvent Ethanol, Temp −2 degrees Celsius, Time 4, tubes with white and yellow crystals)	Result (solid forms in 20 capillary tubes) ([4]; Solvent Ethanol, Temp −2 degrees Celsius, Time 4, tubes with white crystals)
Cc1cc(C#N)c(Nc2ccccc2[N+](=O)[O-])s1 [ROY, 5-methyl-2-[(2-nitrophenyl)amino]-3-thiophenecarbonitrile]	~12 mg/mL (≈ 46.3 mM)	generally insoluble in water	–	–	–	–	–	–	–	–	–	–	–	–	–	–	–	–
CC(=O)Nc1ccc(C)cc1[N+](=O)[O-] [WAY, 4-methyl-2-nitro-acetanilide]	–	–	forty contained white crystals; also recorded: twenty-two contained yellow crystals	nineteen of those tubes had transformed to white crystals; also recorded: six still contained yellow crystals	2/20: mixture of yellow	18/20: no solids formed	5/20: mixture of yellow	15/20: no solids formed	19/20: mixture of yellow	1/20: no solids formed	1/20: white crystals	19/20: yellow crystals	16/20: mixture of white	4/20: no solids formed	17/20: mixture of yellow	3/20: no solids formed	2/20: white and yellow	10/20: white crystals
